Among the test systems are BT-549 breast; A549 NSCLC; HOP-92 NSCLC; HCT-116 colon; LOX IMVI melanoma; OVCAR-3 ovarian; M14 melanoma; OVCAR-8 ovarian; UACC-62 melanoma; A498 renal.
Holding throughout (assay): DTP human tumour cell line panel, 48 h

Several values for one entry are separate records, joined by “and”; a condition that tells them apart may be missing. Equal values may be shown once.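 Step 1: Grow cells in 96-well plates. Step 2: Expose to compound for 48 hours at 5 concentrations. Step 3: Interpolate endpoints linearly; if unreached, use highest concentration. GI50 is the concentration that inhibits growth by half. TGI: total growth inhibition.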 Some results are limits rather than exact numbers.

The record followed here is PubChem BioAssay (NCI).

In the case of `NC1=CC(=O)c2c(O)ccc(O)c2C1=O`, the TGI was determined as 30.9 µM in the test with BT-549 breast; 49.6 µM in the test on A549 NSCLC; 38.2 µM in the test with HOP-92 NSCLC; 22.3 µM with HCT-116 colon; 33.1 µM in the test with LOX IMVI melanoma; 8.45 µM in the test with OVCAR-3 ovarian. Moreover, the TGI in the test on M14 melanoma was 22.3 µM; in the test on OVCAR-8 ovarian, 33 µM; in the test with UACC-62 melanoma, 26.5 µM; in the test with A498 renal, 47.5 µM.
On to `Cc1c2ccnc(C(N)=O)c2c(C)c2c1[nH]c1ccccc12`, for which the GI50 in the test with A549 NSCLC was 3.28 µM; in the test with HOP-92 NSCLC it was 2.96 µM and 11.5 µM; with OVCAR-3 ovarian, 5.94 µM; with OVCAR-8 ovarian, 4.87 µM; in the test on A498 renal, 3.09 µM. Further, the total growth inhibition concentration (TGI) with A549 NSCLC was 37.1 µM and 15.8 µM; in the test with HOP-92 NSCLC, 12 µM and 53.2 µM; in the test on HCT-116 colon, 17.4 µM; in the test on LOX IMVI melanoma it was 21.2 µM; in the test with OVCAR-3 ovarian, 34.8 µM and 32.1 µM; in the test with M14 melanoma, over 100 µM. Also, the TGI in the test with OVCAR-8 ovarian was 19.1 µM and > 100 µM; in the test with UACC-62 melanoma, 15.8 µM and 20.4 µM; with A498 renal, 26.7 µM and 12.4 µM.
On to `O=c1oc2ccc3ccccc3c2cc1-c1cn2ccsc2n1`, for which the TGI is 32.6 µM in the test on BT-549 breast; over 100 µM with A549 NSCLC; 30 µM in the test with HOP-92 NSCLC; 30.9 µM in the test with HCT-116 colon; 31.7 µM with LOX IMVI melanoma; 43.8 µM in the test on OVCAR-3 ovarian. The TGI in the test on M14 melanoma turned out to be 60.5 µM; in the test on OVCAR-8 ovarian, 41.2 µM; in the test on UACC-62 melanoma, 34.2 µM.
For the compound `CN(C)c1nc(Oc2nc(N(C)C)nc(N(C)C)n2)nc(N(C)C)n1`, the total growth inhibition concentration (TGI) in the test on A549 NSCLC, with HOP-92 NSCLC, in the test with HCT-116 colon, with LOX IMVI melanoma, with OVCAR-3 ovarian and with M14 melanoma was over 100 µM throughout. Besides, the TGI with OVCAR-8 ovarian, in the test with UACC-62 melanoma and in the test on A498 renal was over 100 µM each time.
Consider `O=c1[nH]c(NCc2ccncc2)nc2nc[nH]c12`, for which the TGI in the test with BT-549 breast, with A549 NSCLC, in the test on HOP-92 NSCLC, in the test with HCT-116 colon, in the test on LOX IMVI melanoma and in the test on OVCAR-3 ovarian was over 100 µM throughout. Besides, the TGI in the test with M14 melanoma, in the test on OVCAR-8 ovarian and with UACC-62 melanoma was over 100 µM in each case.
`COc1ccc(C2Oc3ccc(Cl)cc3C=C2[N+](=O)[O-])cc1` (stereo not drawn): the TGI in the test with BT-549 breast, in the test with A549 NSCLC, in the test on HCT-116 colon, in the test on LOX IMVI melanoma, in the test on OVCAR-3 ovarian and in the test on M14 melanoma was over 100 µM throughout. Further, the concentration for total growth inhibition (TGI) in the test on OVCAR-8 ovarian and with UACC-62 melanoma was over 100 µM in each case.
Take `Cc1ccccc1-c1nc2c(N)nc(N)nc2nc1N`: the TGI in the test with BT-549 breast, in the test with A549 NSCLC, with HCT-116 colon, with LOX IMVI melanoma, with OVCAR-3 ovarian and in the test with M14 melanoma was over 100 µM throughout. The TGI in the test on OVCAR-8 ovarian and with UACC-62 melanoma was over 100 µM each time.
Take `COc1cc2nc(-c3ccc(Cl)cc3)cc(OCCCN3CCOCC3)c2cc1OC`: the GI50 in the test with BT-549 breast was 2.59 µM; in the test on A549 NSCLC, 2.02 µM; in the test with HOP-92 NSCLC, 1.36 µM; with HCT-116 colon, 1.59 µM; in the test with LOX IMVI melanoma, 0.217 µM; in the test on M14 melanoma, 0.545 µM. The values for the GI50 in the test with OVCAR-8 ovarian, with UACC-62 melanoma and in the test on A498 renal were 2.15 µM, 2.26 µM and 1.59 µM, respectively. Besides, the TGI is over 100 µM with BT-549 breast; over 100 µM in the test on A549 NSCLC; 5.17 µM in the test on HOP-92 NSCLC; over 100 µM in the test on HCT-116 colon; 0.593 µM in the test with LOX IMVI melanoma; 2.7 µM in the test with M14 melanoma. For the same compound, the TGI in the test on OVCAR-8 ovarian was over 100 µM; with UACC-62 melanoma, 6.35 µM; in the test with A498 renal, 4.02 µM.
In the case of `COC(=O)[C@]1(C)CCC[C@@]2(C)C1CC[C@]13C=C(C(C)C)[C@H](CC21)CC3(Cl)C#N` (stereo partly drawn), the concentration for total growth inhibition (TGI) with BT-549 breast is 86 µM; in the test on A549 NSCLC it was over 100 µM; with HOP-92 NSCLC it was over 100 µM; in the test on HCT-116 colon, over 100 µM; in the test with OVCAR-3 ovarian it was over 100 µM; with M14 melanoma, over 100 µM. Also, the concentration for total growth inhibition (TGI) with OVCAR-8 ovarian, with UACC-62 melanoma and with A498 renal was over 100 µM throughout.
As for `c1c[nH]c(-c2cccc3nsnc23)c1`, the concentration for total growth inhibition (TGI) in the test with BT-549 breast, in the test with A549 NSCLC, in the test with HCT-116 colon, in the test with LOX IMVI melanoma, in the test with M14 melanoma and with OVCAR-8 ovarian was over 100 µM each time. Besides, the TGI with UACC-62 melanoma and in the test with A498 renal was over 100 µM in each case.
Consider `CN(CCN1CCCC1)C1CCc2cc(Cl)c(Cl)cc2C1` (stereo not drawn), for which the TGI in the test with BT-549 breast was determined as 28.5 µM; in the test on A549 NSCLC, 32.4 µM; in the test with HCT-116 colon, 25.5 µM; in the test with LOX IMVI melanoma it was 29.7 µM; in the test with OVCAR-3 ovarian it was 32.1 µM; with M14 melanoma it was 31.5 µM. Besides, the TGI in the test on OVCAR-8 ovarian amounted to 30.8 µM; with UACC-62 melanoma it was 19.4 µM; with A498 renal, 27.1 µM.
As to `S=C(Cc1ccc2c(c1)Sc1ccccc1O2)N1CCOCC1`, the total growth inhibition concentration (TGI) in the test on A549 NSCLC, in the test with HOP-92 NSCLC, in the test on HCT-116 colon, with LOX IMVI melanoma, in the test on OVCAR-3 ovarian and in the test with M14 melanoma was over 100 µM throughout. In addition, the total growth inhibition concentration (TGI) in the test on OVCAR-8 ovarian, with UACC-62 melanoma and in the test with A498 renal was over 100 µM each time.
As to `COc1cc2ccc3c4cc(OC)c(OC)cc4c[n+](C)c3c2cc1O`, the concentration for total growth inhibition (TGI) in the test with A549 NSCLC, in the test on HOP-92 NSCLC, in the test with HCT-116 colon, in the test with LOX IMVI melanoma, in the test on OVCAR-3 ovarian and in the test with M14 melanoma was over 100 µM in each case. The figures for the concentration for total growth inhibition (TGI) with OVCAR-8 ovarian, in the test on UACC-62 melanoma and in the test on A498 renal were over 100 µM, over 100 µM and over 48.1 µM, respectively.
Consider `O=C(COc1ccc(OCC(=O)N/N=C/c2ccc(-c3ccc(Cl)cc3Cl)o2)c(Cl)c1)N/N=C/c1ccc(-c2ccc(Cl)cc2Cl)o1`, for which the total growth inhibition concentration (TGI) in the test on BT-549 breast, with A549 NSCLC, in the test with HCT-116 colon, in the test on LOX IMVI melanoma, in the test on OVCAR-3 ovarian and in the test with M14 melanoma was over 100 µM in each case. In addition, the TGI in the test on OVCAR-8 ovarian, in the test with UACC-62 melanoma and in the test on A498 renal was over 100 µM throughout.
